The source made the active and inactive calls. How the calls were made is not given here.
Each compound was assayed against Intestinal-type alkaline phosphatase (Homo sapiens) (UniProt P09923) (assay: inhibition of intestinal alkaline phosphatase activity – biochemical, luminescence, set 2, SAR follow-up (AID 540265)). Details: purified human IAP, luminescent substrate read-out.
Intestinal-type alkaline phosphatase (Homo sapiens), sequence (P09923 whole entry, looked up): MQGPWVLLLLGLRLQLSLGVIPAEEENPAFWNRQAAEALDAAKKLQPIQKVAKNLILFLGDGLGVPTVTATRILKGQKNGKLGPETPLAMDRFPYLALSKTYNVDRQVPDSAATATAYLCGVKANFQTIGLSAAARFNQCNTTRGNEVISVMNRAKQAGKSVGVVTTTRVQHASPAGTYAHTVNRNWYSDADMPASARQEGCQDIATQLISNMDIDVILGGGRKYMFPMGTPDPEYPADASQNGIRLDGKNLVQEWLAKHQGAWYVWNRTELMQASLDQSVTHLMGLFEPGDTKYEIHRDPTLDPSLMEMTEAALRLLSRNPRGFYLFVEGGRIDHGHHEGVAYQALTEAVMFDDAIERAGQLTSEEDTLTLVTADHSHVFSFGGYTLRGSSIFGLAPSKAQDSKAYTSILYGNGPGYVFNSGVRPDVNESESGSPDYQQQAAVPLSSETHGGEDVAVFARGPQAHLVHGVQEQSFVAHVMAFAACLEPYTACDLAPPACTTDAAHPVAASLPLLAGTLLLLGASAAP

IC50, inactive:
N#Cc1ccc(CNC(=O)CCNS(=O)(=O)c2ccc3[nH]c(=O)oc3c2)cc1 > 100 µM, O=C(CNS(=O)(=O)c1ccc2[nH]c(=O)oc2c1)Nc1ccc2c(c1)OCO2 > 100 µM, O=C(CNS(=O)(=O)c1ccc2[nH]c(=O)oc2c1)NCc1ccc2c(c1)OCO2 > 100 µM, COc1ccc(NC(=O)CNS(=O)(=O)c2ccc3[nH]c(=O)oc3c2)cc1OC > 100 µM, Cc1ccc(C)c(NC(=O)CCNS(=O)(=O)c2ccc3[nH]c(=O)oc3c2)c1 > 100 µM

— PubChem BioAssay AID540265 (Sanford-Burnham Center for Chemical Genomics, 2011)
